3 molecules from ChEMBL document CHEMBL1201862, “PubChem BioAssay data set” (2004) can be followed below.

Calls of active or inactive are those of the source. Cut-off read from the data, not from the text of the source, for most assays here: actives have a measured IC50 and inactives only a lower limit. Bounds are passed on as bounds.

The target of assay [1] is 26S proteasome non-ATPase regulatory subunit 14 (Homo sapiens, UniProt O00487). Briefly: inhibition of proteasome subunit RPN11 – biochemical, fluorescence polarization, uHTS hits, confirmation (AID 602368). The format is functional.
Assay [2] deals with 72 kDa type IV collagenase (Homo sapiens, UniProt P08253). The assay is described as follows: Dose Response validation of uHTS RPN11 inhibitor hits using a MMP-2 Fluorescence assay. The format is functional.
The target in assay [3] is Prothrombin (Bos taurus, UniProt P00735). The assay is described as follows: thrombin inhibition, dose response, biochemical, fluorescence polarization, uHTS hits (AID 602369). The format is functional. In general terms: In fluorescence polarisation assays a small probe gives low polarisation when free and higher when bound to something large.
The target of assay [4] is T1, Caspase-3 (Homo sapiens, UniProt P42574).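 Note: Dose-response selectivity test against caspase-3 for candidate inhibitors of sentrin-specific proteases (SENPs).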
T1 sequence (P42574 whole entry): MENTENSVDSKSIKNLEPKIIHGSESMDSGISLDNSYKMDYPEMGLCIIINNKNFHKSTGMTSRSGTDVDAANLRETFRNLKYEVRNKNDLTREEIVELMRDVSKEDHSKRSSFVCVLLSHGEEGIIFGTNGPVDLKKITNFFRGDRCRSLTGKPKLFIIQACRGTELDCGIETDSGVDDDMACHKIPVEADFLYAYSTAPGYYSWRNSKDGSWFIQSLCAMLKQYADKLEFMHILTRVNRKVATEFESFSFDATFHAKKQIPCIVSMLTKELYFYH
The assay is classed as functional.

For assay [5], the target named is T2, Sentrin-specific protease 7 (Homo sapiens, UniProt Q9BQF6).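 Note: Luminescence-based dose-response confirmation of ultra-high-throughput screening hits, measuring inhibition of SENP7.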
T2 sequence (Q9BQF6 whole entry): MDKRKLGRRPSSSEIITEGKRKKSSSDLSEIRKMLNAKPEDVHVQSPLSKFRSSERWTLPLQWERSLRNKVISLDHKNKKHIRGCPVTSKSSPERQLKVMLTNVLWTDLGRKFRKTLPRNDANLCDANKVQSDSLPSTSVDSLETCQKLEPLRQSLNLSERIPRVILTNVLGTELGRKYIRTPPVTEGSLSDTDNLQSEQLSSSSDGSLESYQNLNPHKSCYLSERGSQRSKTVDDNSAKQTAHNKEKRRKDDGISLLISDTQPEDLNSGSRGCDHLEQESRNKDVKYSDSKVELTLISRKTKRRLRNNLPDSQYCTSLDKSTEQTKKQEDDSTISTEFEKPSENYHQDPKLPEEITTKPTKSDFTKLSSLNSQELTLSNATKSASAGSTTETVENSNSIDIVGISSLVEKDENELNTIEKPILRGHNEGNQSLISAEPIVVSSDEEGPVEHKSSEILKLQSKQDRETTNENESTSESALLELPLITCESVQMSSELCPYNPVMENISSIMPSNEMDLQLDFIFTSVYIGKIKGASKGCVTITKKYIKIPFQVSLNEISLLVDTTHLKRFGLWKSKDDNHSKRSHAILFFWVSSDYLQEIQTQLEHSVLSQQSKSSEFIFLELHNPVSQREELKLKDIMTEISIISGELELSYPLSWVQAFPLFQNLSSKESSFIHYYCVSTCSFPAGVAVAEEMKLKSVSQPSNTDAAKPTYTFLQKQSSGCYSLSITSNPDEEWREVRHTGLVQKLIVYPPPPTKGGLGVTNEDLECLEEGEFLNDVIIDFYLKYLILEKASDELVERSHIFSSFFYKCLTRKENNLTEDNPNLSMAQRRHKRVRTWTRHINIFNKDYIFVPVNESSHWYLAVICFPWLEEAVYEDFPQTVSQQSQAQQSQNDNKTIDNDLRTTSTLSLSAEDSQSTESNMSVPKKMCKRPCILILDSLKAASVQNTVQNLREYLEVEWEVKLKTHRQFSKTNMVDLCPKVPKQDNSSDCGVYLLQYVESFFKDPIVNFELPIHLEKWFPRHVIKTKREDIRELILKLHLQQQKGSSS
The assay is classed as functional.

Assay [6] deals with T3, Sentrin-specific protease 6 (Homo sapiens, UniProt Q9GZR1).
T3 sequence (Q9GZR1 whole entry): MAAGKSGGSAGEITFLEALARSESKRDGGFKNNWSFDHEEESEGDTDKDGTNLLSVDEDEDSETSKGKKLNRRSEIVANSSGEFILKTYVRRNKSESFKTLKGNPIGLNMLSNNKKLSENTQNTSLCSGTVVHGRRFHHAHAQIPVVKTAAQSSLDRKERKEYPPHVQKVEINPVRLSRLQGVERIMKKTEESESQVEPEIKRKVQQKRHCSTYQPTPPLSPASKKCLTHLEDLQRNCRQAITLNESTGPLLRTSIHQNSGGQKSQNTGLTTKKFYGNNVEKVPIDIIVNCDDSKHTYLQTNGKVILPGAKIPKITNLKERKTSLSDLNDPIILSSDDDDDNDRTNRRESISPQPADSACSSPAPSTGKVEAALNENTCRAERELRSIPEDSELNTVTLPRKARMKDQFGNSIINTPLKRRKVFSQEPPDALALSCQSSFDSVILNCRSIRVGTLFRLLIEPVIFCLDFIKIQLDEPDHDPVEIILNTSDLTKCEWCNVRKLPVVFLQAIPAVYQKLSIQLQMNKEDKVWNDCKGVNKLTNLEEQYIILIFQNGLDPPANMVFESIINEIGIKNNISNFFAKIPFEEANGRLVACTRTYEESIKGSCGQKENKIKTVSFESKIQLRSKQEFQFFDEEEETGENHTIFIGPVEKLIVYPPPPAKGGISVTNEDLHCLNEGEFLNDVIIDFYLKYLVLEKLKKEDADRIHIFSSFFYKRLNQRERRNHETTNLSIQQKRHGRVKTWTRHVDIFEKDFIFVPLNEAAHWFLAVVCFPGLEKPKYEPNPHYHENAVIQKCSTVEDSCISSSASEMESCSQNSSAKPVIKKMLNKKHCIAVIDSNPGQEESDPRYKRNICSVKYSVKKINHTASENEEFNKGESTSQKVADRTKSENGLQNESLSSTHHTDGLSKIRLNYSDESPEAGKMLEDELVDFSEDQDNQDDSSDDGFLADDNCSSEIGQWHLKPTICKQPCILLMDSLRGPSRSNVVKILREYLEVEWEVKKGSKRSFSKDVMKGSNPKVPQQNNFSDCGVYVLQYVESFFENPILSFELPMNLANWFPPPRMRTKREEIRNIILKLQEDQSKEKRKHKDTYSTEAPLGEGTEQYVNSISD
The assay is classed as functional.

Assay [7] deals with T4, Sentrin-specific protease 8 (Homo sapiens, UniProt Q96LD8).
T4 sequence (Q96LD8 whole entry): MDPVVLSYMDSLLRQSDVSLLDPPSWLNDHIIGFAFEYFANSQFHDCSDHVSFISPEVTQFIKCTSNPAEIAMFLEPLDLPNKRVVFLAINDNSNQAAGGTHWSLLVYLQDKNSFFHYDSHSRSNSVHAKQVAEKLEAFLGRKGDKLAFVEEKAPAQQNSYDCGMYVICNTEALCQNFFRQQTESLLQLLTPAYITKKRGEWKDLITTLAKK
The format is functional.

In assay [8] the test system is HeLa. The assay is described as follows: HeLa cell cytotoxicity, dose response, cytotoxicity control for MITF activator project, CellTiter-Glo luminescence, cherry-pick samples (AID 540259). The format is functional, cell-based. The conditions noted are these: Homo sapiens.
Assay [9] has as its target Beta-galactosidase (Escherichia coli, UniProt Q8VNN2). The assay is described as follows: PubChem AID 485352. The format is functional.
Assay [10] concerns the target T5, Type-1 angiotensin II receptor (Homo sapiens, UniProt P30556).
T5 sequence (P30556 whole entry): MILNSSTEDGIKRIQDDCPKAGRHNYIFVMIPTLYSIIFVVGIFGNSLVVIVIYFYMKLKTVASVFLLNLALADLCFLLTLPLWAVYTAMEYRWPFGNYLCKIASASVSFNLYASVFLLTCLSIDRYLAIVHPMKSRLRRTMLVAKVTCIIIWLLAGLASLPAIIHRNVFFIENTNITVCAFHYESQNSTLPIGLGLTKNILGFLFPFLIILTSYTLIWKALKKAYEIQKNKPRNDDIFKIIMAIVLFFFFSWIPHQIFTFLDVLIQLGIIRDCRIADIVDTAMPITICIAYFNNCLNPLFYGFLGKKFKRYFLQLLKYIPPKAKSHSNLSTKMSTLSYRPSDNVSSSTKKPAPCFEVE
The assay is described as follows: AT1 receptor antagonists, dose response, selectivity assay for APJ receptor antagonist project, cell-based, uHTS hits (AID 463214).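 Note: antagonist potency against angiotensin II stimulated AT1 response.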 The format is functional.

Sequence of 26S proteasome non-ATPase regulatory subunit 14 (O00487 whole entry): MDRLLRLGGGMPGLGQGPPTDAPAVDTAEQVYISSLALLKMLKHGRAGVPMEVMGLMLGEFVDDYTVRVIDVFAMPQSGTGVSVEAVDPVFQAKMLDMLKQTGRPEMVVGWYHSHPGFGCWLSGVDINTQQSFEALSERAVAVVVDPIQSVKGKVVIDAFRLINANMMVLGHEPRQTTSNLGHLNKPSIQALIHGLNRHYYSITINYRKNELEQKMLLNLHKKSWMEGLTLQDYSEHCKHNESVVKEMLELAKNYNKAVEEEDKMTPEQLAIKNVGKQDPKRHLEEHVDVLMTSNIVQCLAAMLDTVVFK
Sequence of Beta-galactosidase (Q8VNN2 whole entry): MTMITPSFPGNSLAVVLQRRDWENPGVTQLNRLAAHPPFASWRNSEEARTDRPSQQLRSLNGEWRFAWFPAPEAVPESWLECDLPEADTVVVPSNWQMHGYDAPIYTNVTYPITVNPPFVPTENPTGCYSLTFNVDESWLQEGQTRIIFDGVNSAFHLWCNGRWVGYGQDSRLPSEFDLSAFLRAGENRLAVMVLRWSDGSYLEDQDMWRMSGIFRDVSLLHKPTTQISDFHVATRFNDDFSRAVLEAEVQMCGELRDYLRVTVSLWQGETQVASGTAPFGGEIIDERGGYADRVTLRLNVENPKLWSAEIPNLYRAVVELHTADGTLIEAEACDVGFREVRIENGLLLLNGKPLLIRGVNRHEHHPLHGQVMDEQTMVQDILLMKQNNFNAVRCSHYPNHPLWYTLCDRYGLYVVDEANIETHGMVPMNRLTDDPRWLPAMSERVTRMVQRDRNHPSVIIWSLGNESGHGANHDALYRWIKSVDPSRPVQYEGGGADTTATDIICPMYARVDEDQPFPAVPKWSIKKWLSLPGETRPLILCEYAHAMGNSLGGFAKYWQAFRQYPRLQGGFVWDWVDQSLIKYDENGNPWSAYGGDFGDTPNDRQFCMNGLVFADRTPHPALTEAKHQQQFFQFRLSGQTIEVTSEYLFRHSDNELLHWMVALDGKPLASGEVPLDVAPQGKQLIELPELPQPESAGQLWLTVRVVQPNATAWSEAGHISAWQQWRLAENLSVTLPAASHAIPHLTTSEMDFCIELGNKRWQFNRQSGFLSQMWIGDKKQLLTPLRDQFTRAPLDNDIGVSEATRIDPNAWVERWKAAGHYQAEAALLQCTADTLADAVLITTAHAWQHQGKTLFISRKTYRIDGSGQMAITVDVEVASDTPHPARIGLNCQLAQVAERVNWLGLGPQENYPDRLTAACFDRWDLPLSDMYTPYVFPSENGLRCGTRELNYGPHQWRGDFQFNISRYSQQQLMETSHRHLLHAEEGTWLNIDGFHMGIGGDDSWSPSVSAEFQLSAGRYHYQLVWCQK
Sequence of 72 kDa type IV collagenase (P08253 whole entry): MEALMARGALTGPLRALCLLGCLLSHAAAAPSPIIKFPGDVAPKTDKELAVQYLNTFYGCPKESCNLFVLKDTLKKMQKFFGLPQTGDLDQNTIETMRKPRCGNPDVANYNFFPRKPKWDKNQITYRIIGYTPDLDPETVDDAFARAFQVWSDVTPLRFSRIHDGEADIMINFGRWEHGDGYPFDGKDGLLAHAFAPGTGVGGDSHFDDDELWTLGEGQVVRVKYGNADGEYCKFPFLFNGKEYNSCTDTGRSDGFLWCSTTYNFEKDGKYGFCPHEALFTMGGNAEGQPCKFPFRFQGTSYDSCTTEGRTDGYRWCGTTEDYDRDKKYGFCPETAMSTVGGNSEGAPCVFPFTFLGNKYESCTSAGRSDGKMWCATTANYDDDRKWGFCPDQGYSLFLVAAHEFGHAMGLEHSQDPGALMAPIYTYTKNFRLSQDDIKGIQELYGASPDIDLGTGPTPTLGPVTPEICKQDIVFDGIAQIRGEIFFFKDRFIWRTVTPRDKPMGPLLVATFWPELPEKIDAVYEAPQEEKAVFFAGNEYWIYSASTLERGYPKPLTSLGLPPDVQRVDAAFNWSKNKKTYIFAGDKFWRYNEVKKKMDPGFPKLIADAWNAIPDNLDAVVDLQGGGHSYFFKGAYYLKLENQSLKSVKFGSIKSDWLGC

As a reminder, the IC50 is the concentration that inhibits the measured activity by half. Regarding `O=C(O)CCCCN1C(=O)/C(=C\c2ccc(OCc3ccccc3)c(OCc3ccccc3)c2)SC1=S`, the IC50 in [1] was 45.4 µM (active); in assay [2] it was > 100 µM (inactive); in [3], 29.3 µM (active).
Usually AC50 stands for the concentration giving half of the maximal activity seen. `Fc1ccccc1CSc1nnc(-c2ccccc2)o1`: the IC50 was 32 µM (active) in assay [4], 12 µM (active) in assay [5], 36.1 µM (active) in [6] and 53 µM (active) in [7]. Further, in assay [8], the AC50 is 74 µM (active).
What is called EC50 is the concentration giving half of the maximal effect. For `NNc1nc(-c2ccccc2)cc(-c2ccc(Br)cc2)n1`, the EC50 in assay [9] was > 40 µM (inactive). For the same molecule, in assay [10], the IC50 is 2.09 µM (active).
